Laboratory results: patent publication US20200055848A1, “FURANONE DERIVATES AND METHODS OF USE THEREOF” (CARNA BIOSCIENCES, INC., priority 2016, published 2020)
pIC50: −log10 of the molar value. Counter-ions that a name gives are not always drawn.

Experiments:
[1] = biological target: T1, human Cdc7/human ASK complex protein (Homo sapiens, UniProt O00311); test: Cdc7/ASK enzymatic assay; format: biochemical; conditions: 5 μM ATP; for Cdc7 inhibitory potency (in words): compared with compound 3; for pIC50: mean of duplicated assays, read-out: Cdc7 IC50
T1 construct: purchased Carna Biosciences, Inc
Procedure: Measurement of Cdc7 kinase activity was carried out using MSA assay kit (QuickScout™ Screening Assist Kit, Carna Biosciences, Inc.). Assay buffer (20 mM HEPES, 0.01% Triton X-100™, 2 mM dithiothreitol, pH 7.5) was used to prepare a substrate mixture solution comprising 4 μM of kinase-reaction substrate (FITC-labeled MCM2 peptide), 40 mM MgCl2, and 4 times concentrations of final targeted ATP (5, 100, and 1,000 μM). The enzyme supplied in the kit (human Cdc7/human ASK complex protein) was diluted into the assay buffer to prepare a 7 nM solution (enzyme solution). The compound stock solution was prepared by diluting a 10 mM DMSO solution into the assay buffer (final 4% DMSO). The kinase reaction was performed by mixing of 5 μL of the compound solution, 5 μL of the substrate mixture solution, and 10 μL of the enzyme solution in a 384-well plate. For the pre-incubation assay, the compound solution and the enzyme solution were pre-mixed and incubated at ambient temperature for 30 min before adding into the substrate mixture solution to start enzymatic reaction. After the reaction at 25° C. for 5 hours, 60 μL of the termination buffer (supplied in the kit) was added to stop the reaction. The phosphorylation of substrate was measured using a LabChip EZ Reader II system (Caliper Life Sciences). The percent inhibition (%) by a tested compound was calculated according to the following formula:
Percent inhibition (%)=(1−(C−A)/(B−A))×100
A represents P/(P+S) for a blank well, B represents P/(P+S) for a solvent well, and C represents P/(P+S) for a compound-added well. S: the peak heights of the separated substrate, P: phosphorylated substrate.
The IC50 value of tested compound was calculated by regression analysis of the percent inhibition values versus the (logarithmic) concentration of the tested compound.

[2] = In vitro metabolic stability, mouse liver microsomes; format: in vitro ADME; conditions: 30 min treatment of mouse liver microsomes
Procedure: (§1) NADPH regeneration system (13 mM NADP, 33 mM Glucose-6-phospate, 33 mM MgCl2, and 4 U/mL of Glucose-6-phosphate dehydrogenase) and liver microsomes (1 mg/mL of HLM (BD Gentest, lot 18888) or MLM (BD Gentest, lot 31197)) in 0.1 M phosphate buffer (pH 7.4) were pre-incubated separately at 37° C. for 20 min before mixing with 1:4 ratio. 50 μL of the mixed solution was added to 50 μL of the test compound (2 μM) to initiate the reaction at 37° C. (final conc. 1 μM test compound, 0.4 mg/mL liver microsomes, and 1.3 mM NADPH). After 30 min, the reactions were stopped by adding 300 μL of cold acetonitrile. For 0 min samples, ice-cold acetonitrile (with system suitability standard) was treated before mixing the test compound and microsomes. The sample were vortexed well and then centrifuged at 3500 rpm at 15° C. for 20 min. 110 μL of supernatant was mixed with 110 μL of water and quantitated by LC-MS/MS workstation (Shimazu Corp.).

[3] = In vitro metabolic stability, human liver microsomes; format: in vitro ADME; conditions: 30 min treatment of human liver microsomes
Procedure: as §1

T1 sequence (O00311 whole entry): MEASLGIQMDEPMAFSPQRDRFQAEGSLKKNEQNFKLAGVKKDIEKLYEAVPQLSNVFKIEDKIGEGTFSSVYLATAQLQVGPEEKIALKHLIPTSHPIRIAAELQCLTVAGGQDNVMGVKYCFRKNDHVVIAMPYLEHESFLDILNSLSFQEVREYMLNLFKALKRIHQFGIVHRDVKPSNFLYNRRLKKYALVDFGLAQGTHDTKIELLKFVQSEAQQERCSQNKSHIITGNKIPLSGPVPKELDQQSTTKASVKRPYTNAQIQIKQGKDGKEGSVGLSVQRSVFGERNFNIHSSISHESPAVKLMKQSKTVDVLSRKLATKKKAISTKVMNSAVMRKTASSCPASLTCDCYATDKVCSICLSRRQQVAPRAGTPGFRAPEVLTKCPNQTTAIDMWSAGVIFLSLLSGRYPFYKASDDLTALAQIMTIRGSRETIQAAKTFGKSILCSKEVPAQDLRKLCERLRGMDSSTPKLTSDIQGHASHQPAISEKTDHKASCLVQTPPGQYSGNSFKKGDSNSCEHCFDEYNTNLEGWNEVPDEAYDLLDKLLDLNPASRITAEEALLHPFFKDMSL
T1 sequence (Q9UBU7 whole entry partner): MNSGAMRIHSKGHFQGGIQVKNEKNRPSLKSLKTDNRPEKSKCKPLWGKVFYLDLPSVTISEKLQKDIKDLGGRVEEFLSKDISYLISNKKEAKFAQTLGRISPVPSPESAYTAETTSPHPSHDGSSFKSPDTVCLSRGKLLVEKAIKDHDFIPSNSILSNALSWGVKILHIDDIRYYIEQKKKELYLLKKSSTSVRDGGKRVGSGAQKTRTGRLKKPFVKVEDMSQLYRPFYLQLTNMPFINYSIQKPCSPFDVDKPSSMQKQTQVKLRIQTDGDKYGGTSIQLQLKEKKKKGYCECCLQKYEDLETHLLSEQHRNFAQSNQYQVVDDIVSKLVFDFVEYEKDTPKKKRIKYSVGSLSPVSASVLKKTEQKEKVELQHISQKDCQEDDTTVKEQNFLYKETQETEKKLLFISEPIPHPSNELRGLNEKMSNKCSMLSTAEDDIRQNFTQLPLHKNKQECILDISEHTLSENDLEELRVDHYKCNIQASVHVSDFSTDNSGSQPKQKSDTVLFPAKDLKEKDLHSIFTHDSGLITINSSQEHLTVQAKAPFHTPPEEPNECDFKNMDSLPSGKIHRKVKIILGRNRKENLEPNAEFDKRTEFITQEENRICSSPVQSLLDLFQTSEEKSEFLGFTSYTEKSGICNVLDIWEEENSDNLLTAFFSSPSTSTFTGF

Structure (SMILES)	Cdc7 inhibitory potency (in words) [1]	pIC50 [1]	MLM % (remaining % of parent compound) [2] [%]	HLM % (remaining % of parent compound) [3] [%]
CCOC(=O)C1=C(Nc2ccccc2)SC(=Cc2c[nH]c3ncccc23)C1=O [Compound 4, Ethyl 5-((1H-pyrrolo[2,3-b]pyridin-3-yl)methylene)-4-oxo-2-(phenylamino)-4,5-dihydrothiophene-3-carboxylate]	retention of some potency	< 5.00	–	–
CCOC(=O)C1=C(Nc2ccccc2)OC(=Cc2c[nH]c3ncc(Cl)cc23)C1=O [Compound 5, Ethyl 5-((5-chloro-1H-pyrrolo[2,3-b]pyridin-3-yl)methylene)-4-oxo-2-(phenylamino)-4,5-dihydrofuran-3-carboxylate]	–	7.36	–	–
CCOC(=O)C1=C(Nc2ccccc2)OC(=Cc2ccc(O)c(C)c2)C1=O [Compound 6, Ethyl 5-(4-hydroxy-3-methylbenzylidene)-4-oxo-2-(phenylamino)-4,5-dihydrofuran-3-carboxylate]	–	5.92	–	–
CCOC(=O)C1=C(Nc2ccccc2)OC(=Cc2ccc3c(c2)OCO3)C1=O [Compound 7, Ethyl 5-(benzo[d][1,3]dioxol-5-ylmethylene)-4-oxo-2-(phenylamino)-4,5-dihydrofuran-3-carboxylate]	–	5.49	–	–
NC(=O)C1=C(Nc2ccccc2)O/C(=C\c2c[nH]c3ncccc23)C1=O [Compound 10, 5-((1H-Pyrrolo[2,3-b]pyridin-3-yl)methylene)-4-oxo-2-(phenylamino)-4,5-dihydrofuran-3-carboxamide]	significant decrease in potency	< 5.00	–	–
CCNC(=O)C1=C(Nc2ccccc2)O/C(=C\c2c[nH]c3ncccc23)C1=O [Compound 11, 5-((1H-Pyrrolo[2,3-b]pyridin-3-yl)methylene)-N-ethyl-4-oxo-2-(phenylamino)-4,5-dihydrofuran-3-carboxamide]	significant decrease in potency	–	–	–
CCOC(=O)C1=C(Nc2cccc(OC)c2)OC(=Cc2c[nH]c3ncccc23)C1=O [Compound 17, Ethyl 5-((1H-pyrrolo[2,3-b]pyridin-3-yl)methylene)-2-((3-methoxyphenyl)amino)-4-oxo-4,5-dihydrofuran-3-carboxylate]	–	7.54	–	–
CCOC(=O)C1=C(Nc2ccccn2)OC(=Cc2c[nH]c3ncccc23)C1=O [Compound 25, Ethyl 5-((1H-pyrrolo[2,3-b]pyridin-3-yl)methylene)-4-oxo-2-(pyridin-2-ylamino)-4,5-dihydrofuran-3-carboxylate]	–	7.52	–	–
CCOC(=O)C1=C(Nc2ccc3ncccc3c2)O/C(=C\c2c[nH]c3ncccc23)C1=O [Compound 30, Ethyl 5-((1H-pyrrolo[2,3-b]pyridin-3-yl)methylene)-4-oxo-2-(quinolin-6-ylamino)-4,5-dihydrofuran-3-carboxylate]	–	7.44	–	–
CCOC(=O)C1=C(NCc2ccccc2)O/C(=C\c2c[nH]c3ncccc23)C1=O [Compound 32, Ethyl 5-((1H-pyrrolo[2,3-b]pyridin-3-yl)methylene)-2-(benzylamino)-4-oxo-4,5-dihydrofuran-3-carboxylate hydrochloride]	some decrease in potency	7.64	–	–
CCOC(=O)C1=C(NCCc2ccccc2)O/C(=C\c2c[nH]c3ncccc23)C1=O [Compound 33, Ethyl 5-((1H-pyrrolo[2,3-b]pyridin-3-yl)methylene)-4-oxo-2-(phenethylamino)-4,5-dihydrofuran-3-carboxylate hydrochloride]	some decrease in potency	7.52	–	–

More lines, in order of rising pIC50 [1], values ahead:

Cdc7 inhibitory potency (in words) [1]	pIC50 [1]	MLM % (remaining % of parent compound) [2] [%]	HLM % (remaining % of parent compound) [3] [%]	Structure (SMILES)
–	7.74	–	–	CCOC(=O)C1=C(Nc2cncnc2)O/C(=C\c2c[nH]c3ncccc23)C1=O [Compound 28, Ethyl 5-((1H-pyrrolo[2,3-b]pyridin-3-yl)methylene)-4-oxo-2-(pyrimidin-5-ylamino)-4,5-dihydrofuran-3-carboxylate]
–	7.92	–	–	CCOC(=O)C1=C(Nc2cccc(Cl)c2)OC(=Cc2c[nH]c3ncccc23)C1=O [Compound 14, Ethyl 5-((1H-pyrrolo[2,3-b]pyridin-3-yl)methylene)-2-((3-chlorophenyl)amino)-4-oxo-4,5-dihydrofuran-3-carboxylate]
–	7.92	–	–	CCOC(=O)C1=C(Nc2ccccc2OC)OC(=Cc2c[nH]c3ncccc23)C1=O [Compound 16, Ethyl 5-((1H-pyrrolo[2,3-b]pyridin-3-yl)methylene)-2-((2-methoxyphenyl)amino)-4-oxo-4,5-dihydrofuran-3-carboxylate]
–	8.00	–	–	CCOC(=O)C1=C(Nc2cc[nH]n2)O/C(=C\c2c[nH]c3ncccc23)C1=O [Compound 29, Ethyl 2-((1H-pyrazol-3-yl)amino)-5-((1H-pyrrolo[2,3-b]pyridin-3-yl)methylene)-4-oxo-4,5-dihydrofuran-3-carboxylate]
–	8.00	–	–	O=C(O)C1=C(Nc2ccccc2)O/C(=C\c2c[nH]c3ncccc23)C1=O [Compound 9, 5-((1H-Pyrrolo[2,3-b]pyridin-3-yl)methylene)-4-oxo-2-(phenylamino)-4,5-dihydrofuran-3-carboxylic acid]
–	8.10	–	–	CCOC(=O)C1=C(Nc2cccnc2)OC(=Cc2c[nH]c3ncccc23)C1=O [Compound 26, Ethyl 5-((1H-pyrrolo[2,3-b]pyridin-3-yl)methylene)-4-oxo-2-(pyridin-3-ylamino)-4,5-dihydrofuran-3-carboxylate]
–	8.17	–	–	CCOC(=O)C1=C(Nc2ccc(Cl)cc2)OC(=Cc2c[nH]c3ncccc23)C1=O [Compound 15, Ethyl 5-((1H-pyrrolo[2,3-b]pyridin-3-yl)methylene)-2-((4-chlorophenyl)amino)-4-oxo-4,5-dihydrofuran-3-carboxylate]
–	8.23	–	–	CCOC(=O)C1=C(Nc2ccc(C)cc2)OC(=Cc2c[nH]c3ncccc23)C1=O [Compound 22, Ethyl 5-((1H-pyrrolo[2,3-b]pyridin-3-yl)methylene)-4-oxo-2-(p-tolylamino)-4,5-dihydrofuran-3-carboxylate]
–	8.31	5.1	33	CCOC(=O)C1=C(Nc2ccc(OC)cc2)OC(=Cc2c[nH]c3ncccc23)C1=O [Compound 18, Ethyl 5-((1H-pyrrolo[2,3-b]pyridin-3-yl)methylene)-2-((4-methoxyphenyl)amino)-4-oxo-4,5-dihydrofuran-3-carboxylate]
–	8.37	25	52	CCOC(=O)C1=C(Nc2ccc(F)cc2)OC(=Cc2c[nH]c3ncccc23)C1=O [Compound 20, Ethyl 5-((1H-pyrrolo[2,3-b]pyridin-3-yl)methylene)-2-((4-fluorophenyl)amino)-4-oxo-4,5-dihydrofuran-3-carboxylate]
–	8.40	–	–	CCOC(=O)C1=C(Nc2ccc3cn[nH]c3c2)OC(=Cc2c[nH]c3ncccc23)C1=O [Compound 31, Ethyl 2-((1H-indazol-6-yl)amino)-5-((1H-pyrrolo[2,3-b]pyridin-3-yl)methylene)-4-oxo-4,5-dihydrofuran-3-carboxylate]
–	8.42	24	53	CCOC(=O)C1=C(Nc2ccccc2C)OC(=Cc2c[nH]c3ncccc23)C1=O [Compound 21, Ethyl 5-((1H-pyrrolo[2,3-b]pyridin-3-yl)methylene)-4-oxo-2-(o-tolylamino)-4,5-dihydrofuran-3-carboxylate]
–	8.46	–	–	CCOC(=O)C1=C(Nc2ccncc2)OC(=Cc2c[nH]c3ncccc23)C1=O [Compound 27, Ethyl 5-((1H-pyrrolo[2,3-b]pyridin-3-yl)methylene)-4-oxo-2-(pyridin-4-ylamino)-4,5-dihydrofuran-3-carboxylate]
–	8.62	10	30	CCOC(=O)C1=C(Nc2ccccc2F)OC(=Cc2c[nH]c3ncccc23)C1=O [Compound 19, Ethyl 5-[(1H-pyrrolo[2,3-b]pyridin-3-yl)methylene]-2-[(2-fluorophenyl)amino]-4-oxo-4,5-dihydrofuran-3-carboxylate]
